Assay results: patent publication US10479784B2, “Substituted pyrazin-2-amines as inhibitors of ATR kinase” (Vertex Pharmaceuticals Incorporated, priority 2008, dated 2019)

Target: full-length ATR (Homo sapiens (Human), UniProt Q13535)
Assay: ATR Inhibition Assay (radioactive-phosphate incorporation)
Format: biochemical
Settings: read-out: ATR Ki
Procedure, shortened: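 Full-length human ATR (5 nM) was assayed at 25 °C in 50 mM Tris/HCl pH 7.5, 10 mM MgCl2, 1 mM DTT, with 10 μM [γ-33P]ATP and 800 μM peptide, after 10-min compound preincubation. Reactions were stopped after 24 h, captured on phosphocellulose and counted; Ki(app) came from non-linear regression of initial rates.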

Sequence of full-length ATR (Q13535 whole entry): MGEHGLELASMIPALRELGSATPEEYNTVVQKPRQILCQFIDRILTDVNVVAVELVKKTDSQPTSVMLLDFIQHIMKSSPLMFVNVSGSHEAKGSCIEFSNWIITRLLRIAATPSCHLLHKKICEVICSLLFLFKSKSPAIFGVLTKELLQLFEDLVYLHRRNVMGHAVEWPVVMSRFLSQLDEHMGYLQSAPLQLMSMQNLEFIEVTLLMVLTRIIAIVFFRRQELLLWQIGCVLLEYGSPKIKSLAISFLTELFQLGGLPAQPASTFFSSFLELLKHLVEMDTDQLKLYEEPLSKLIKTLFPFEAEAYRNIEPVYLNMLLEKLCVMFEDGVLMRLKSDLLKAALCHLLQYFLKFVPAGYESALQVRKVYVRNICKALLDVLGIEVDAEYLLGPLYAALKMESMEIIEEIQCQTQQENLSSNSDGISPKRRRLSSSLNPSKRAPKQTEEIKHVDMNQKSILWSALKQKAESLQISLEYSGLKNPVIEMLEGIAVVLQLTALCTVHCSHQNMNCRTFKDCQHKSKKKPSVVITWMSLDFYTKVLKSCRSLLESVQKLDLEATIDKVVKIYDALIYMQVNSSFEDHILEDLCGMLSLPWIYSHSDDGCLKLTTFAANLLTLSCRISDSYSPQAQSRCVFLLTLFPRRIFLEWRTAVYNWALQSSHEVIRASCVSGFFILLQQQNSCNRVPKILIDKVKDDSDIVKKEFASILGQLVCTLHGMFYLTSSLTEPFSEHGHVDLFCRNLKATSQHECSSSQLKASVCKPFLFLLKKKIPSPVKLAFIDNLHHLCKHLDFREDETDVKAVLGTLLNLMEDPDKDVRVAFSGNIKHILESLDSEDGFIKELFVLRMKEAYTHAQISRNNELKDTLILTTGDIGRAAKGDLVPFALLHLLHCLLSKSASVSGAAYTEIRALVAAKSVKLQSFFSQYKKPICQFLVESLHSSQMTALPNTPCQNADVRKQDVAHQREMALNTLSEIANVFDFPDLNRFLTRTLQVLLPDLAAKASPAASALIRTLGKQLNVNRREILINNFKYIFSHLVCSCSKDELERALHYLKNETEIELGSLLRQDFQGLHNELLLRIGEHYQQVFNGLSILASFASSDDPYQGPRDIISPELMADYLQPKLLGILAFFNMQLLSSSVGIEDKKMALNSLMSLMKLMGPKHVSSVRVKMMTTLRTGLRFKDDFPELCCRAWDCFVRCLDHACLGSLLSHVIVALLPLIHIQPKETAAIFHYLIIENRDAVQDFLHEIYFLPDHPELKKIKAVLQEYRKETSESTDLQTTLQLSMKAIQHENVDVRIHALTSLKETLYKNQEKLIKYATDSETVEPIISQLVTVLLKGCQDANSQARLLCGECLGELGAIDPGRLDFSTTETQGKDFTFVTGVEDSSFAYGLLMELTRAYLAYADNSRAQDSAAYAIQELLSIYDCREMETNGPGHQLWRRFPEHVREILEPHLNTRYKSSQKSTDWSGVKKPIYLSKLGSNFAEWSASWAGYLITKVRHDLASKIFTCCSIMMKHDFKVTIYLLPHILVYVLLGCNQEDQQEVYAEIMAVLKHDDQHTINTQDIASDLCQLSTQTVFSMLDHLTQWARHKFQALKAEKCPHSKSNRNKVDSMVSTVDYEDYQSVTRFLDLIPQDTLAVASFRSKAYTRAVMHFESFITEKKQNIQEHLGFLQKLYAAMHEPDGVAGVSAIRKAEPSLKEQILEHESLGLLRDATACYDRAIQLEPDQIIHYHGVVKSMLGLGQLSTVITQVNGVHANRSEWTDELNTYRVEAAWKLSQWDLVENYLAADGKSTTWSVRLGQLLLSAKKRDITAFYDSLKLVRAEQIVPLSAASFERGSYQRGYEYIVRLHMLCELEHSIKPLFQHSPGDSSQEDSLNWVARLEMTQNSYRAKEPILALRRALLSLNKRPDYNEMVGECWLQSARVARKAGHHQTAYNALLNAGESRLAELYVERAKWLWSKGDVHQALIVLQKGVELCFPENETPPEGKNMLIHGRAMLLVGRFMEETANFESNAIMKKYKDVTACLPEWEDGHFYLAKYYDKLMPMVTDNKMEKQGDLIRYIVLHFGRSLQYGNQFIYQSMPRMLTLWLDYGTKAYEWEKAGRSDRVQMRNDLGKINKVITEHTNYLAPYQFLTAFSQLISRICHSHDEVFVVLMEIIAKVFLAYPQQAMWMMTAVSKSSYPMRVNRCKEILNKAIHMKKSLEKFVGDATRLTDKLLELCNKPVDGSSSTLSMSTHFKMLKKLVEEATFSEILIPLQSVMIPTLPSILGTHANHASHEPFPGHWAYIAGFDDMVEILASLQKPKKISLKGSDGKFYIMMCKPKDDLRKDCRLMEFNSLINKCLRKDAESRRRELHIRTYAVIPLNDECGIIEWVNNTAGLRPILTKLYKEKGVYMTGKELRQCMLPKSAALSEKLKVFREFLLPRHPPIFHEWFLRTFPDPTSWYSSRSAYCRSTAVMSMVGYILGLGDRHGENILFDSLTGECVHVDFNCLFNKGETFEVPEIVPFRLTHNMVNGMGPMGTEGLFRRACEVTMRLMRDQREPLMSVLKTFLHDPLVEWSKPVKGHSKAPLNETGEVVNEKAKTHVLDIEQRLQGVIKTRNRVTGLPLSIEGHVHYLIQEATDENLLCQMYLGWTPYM

SMILES	Ki [nM]
CC(C)NCc1ccc(-c2nnc(-c3nc(-c4ccc(S(=O)(=O)C(C)C)cc4)cnc3N)o2)s1 [IA-248, 3-[5-[5-[(isopropylamino)methyl]-2-thienyl]-1,3,4-oxadiazol-2-yl]-5-(4-isopropylsulfonylphenyl)pyrazin-2-amine]	≤ 10
CC(=O)c1cccc(-c2cnc(N)c(-c3nnc(-c4ccccc4)o3)n2)c1 [IA-249, 1-[3-[5-amino-6-(5-phenyl-1,3,4-oxadiazol-2-yl)pyrazin-2-yl]phenyl]ethanone]	10 to 100
CN(C)C(=O)c1ccc(-c2cnc(N)c(-c3nnc(N(C)c4ccccc4)o3)n2)cc1 [IA-250, 4-[5-amino-6-[5-(N-methylanilino)-1,3,4-oxadiazol-2-yl]pyrazin-2-yl]-N,N-dimethyl-benzamide]	100 to 5000
CC(C)S(=O)(=O)c1ccc(-c2cnc(N)c(-c3nnc(CCNC(=O)OC(C)(C)C)o3)n2)cc1 [IA-251, tert-butyl N-[2-[5-[3-amino-6-(4-isopropylsulfonylphenyl)pyrazin-2-yl]-1,3,4-oxadiazol-2-yl]ethyl]carbamate]	100 to 5000
N#Cc1cccc(-c2cnc(N)c(-c3nnc(-c4ccccc4)o3)n2)c1 [IA-252, 3-[5-amino-6-(5-phenyl-1,3,4-oxadiazol-2-yl)pyrazin-2-yl]benzonitrile]	10 to 100
C=Cc1ccccc1-c1cnc(N)c(-c2nnc(-c3ccccc3)o2)n1 [IA-253, 3-(5-phenyl-1,3,4-oxadiazol-2-yl)-5-(2-vinylphenyl)pyrazin-2-amine]	100 to 5000
CN(C)C(=O)c1ccc(-c2cnc(N)c(-c3nnc(Nc4cccc(C#N)c4)o3)n2)cc1 [IA-254, 4-[5-amino-6-[5-(3-cyanoanilino)-1,3,4-oxadiazol-2-yl]pyrazin-2-yl]-N,N-dimethyl-benzamide]	100 to 5000
CC(C)S(=O)(=O)c1ccc(-c2cnc(N)c(-c3nnc(C(=O)NCC4CCCNC4)o3)n2)cc1 (stereo not drawn) [IA-255, 5-[3-amino-6-(4-isopropylsulfonylphenyl)pyrazin-2-yl]-N-(3-piperidylmethyl)-1,3,4-oxadiazole-2-carboxamide]	100 to 5000
CC[S+]([O-])c1ccccc1-c1cnc(N)c(-c2nnc(-c3ccccc3)o2)n1 (stereo not drawn) [IA-256, 5-(2-ethylsulfinylphenyl)-3-(5-phenyl-1,3,4-oxadiazol-2-yl)pyrazin-2-amine]	≤ 10
C[S+]([O-])c1ccccc1-c1cnc(N)c(-c2nnc(-c3cccc(CN)c3)o2)n1 (stereo not drawn) [IA-257, 3-[5-[3-(aminomethyl)phenyl]-1,3,4-oxadiazol-2-yl]-5-(2-methylsulfinylphenyl)pyrazin-2-amine]	≤ 10
C#Cc1nnc(-c2nc(-c3ccc(S(=O)(=O)C(C)C)cc3)cnc2N)o1 [IA-258, 3-(5-ethynyl-1,3,4-oxadiazol-2-yl)-5-(4-isopropylsulfonylphenyl)pyrazin-2-amine]	≤ 10
Nc1ncc(-c2cccc3ccsc23)nc1-c1nnc(-c2ccccc2)o1 [IA-259, 5-(benzothiophen-7-yl)-3-(5-phenyl-1,3,4-oxadiazol-2-yl)pyrazin-2-amine]	10 to 100
Nc1ncc(-c2cccc3ncccc23)nc1-c1nnc(-c2ccccc2)o1 [IA-260, 3-(5-phenyl-1,3,4-oxadiazol-2-yl)-5-(5-quinolyl)pyrazin-2-amine]	10 to 100
NCC[S+]([O-])c1ccccc1-c1cnc(N)c(-c2nnc(-c3ccccc3)o2)n1 (stereo not drawn) [IA-261, 5-(2-(2-aminoethylsulfinyl)phenyl)-3-(5-phenyl-1,3,4-oxadiazol-2-yl)pyrazin-2-amine]	10 to 100
CN(C)C(=O)c1ccc(-c2cnc(N)c(-c3nnc(-c4ccsc4)o3)n2)cc1 [IA-262, 4-[5-amino-6-[5-(3-thienyl)-1,3,4-oxadiazol-2-yl]pyrazin-2-yl]-N,N-dimethyl-benzamide]	≤ 10
Cc1ccc(-c2nnc(-c3nc(-c4ccc(C(=O)N(C)C)cc4)cnc3N)o2)cc1 [IA-263, 4-[5-amino-6-[5-(p-tolyl)-1,3,4-oxadiazol-2-yl]pyrazin-2-yl]-N,N-dimethyl-benzamide]	10 to 100
N#Cc1cccn1-c1cnc(N)c(-c2nnc(-c3ccccc3)o2)n1 [IA-264, 1-[5-amino-6-(5-phenyl-1,3,4-oxadiazol-2-yl)pyrazin-2-yl]pyrrole-2-carbonitrile]	≤ 10
CN(C)CCNc1cc(-c2cnc(N)c(-c3nnc(-c4ccccc4)o3)n2)ccn1 [IA-265, N′-[4-[5-amino-6-(5-phenyl-1,3,4-oxadiazol-2-yl)pyrazin-2-yl]-2-pyridyl]-N,N-dimethyl-ethane-1,2-diamine]	100 to 5000
NC(=O)Cc1ccccc1-c1cnc(N)c(-c2nnc(-c3ccccc3)o2)n1 [IA-266, 2-[2-[5-amino-6-(5-phenyl-1,3,4-oxadiazol-2-yl)pyrazin-2-yl]phenyl]acetamide]	10 to 100
CC(=O)Nc1ccccc1-c1cnc(N)c(-c2nnc(-c3ccccc3)o2)n1 [IA-267, N-(2-(5-amino-6-(5-phenyl-1,3,4-oxadiazol-2-yl)pyrazin-2-yl)phenyl)ethanamide]	10 to 100

SMILES	Ki [nM]
CC#Cc1cc(C(=O)N(C)C)ccc1-c1cnc(N)c(-c2nnc(-c3ccccc3)o2)n1 [IA-268, 4-[5-amino-6-(5-phenyl-1,3,4-oxadiazol-2-yl)pyrazin-2-yl]-N,N-dimethyl-3-prop-1-ynyl-benzamide]	10 to 100
Cc1ccsc1-c1nnc(-c2nc(-c3ccc(S(=O)(=O)CCN(C)C)cc3)cnc2N)o1 [IA-269, 5-[4-(2-dimethylaminoethylsulfonyl)phenyl]-3-[5-(3-methyl-2-thienyl)-1,3,4-oxadiazol-2-yl]pyrazin-2-amine]	≤ 10
CC(C)S(=O)(=O)c1ccc(-c2cnc(N)c(-c3nnc(N)o3)n2)cc1 [IA-270, 5-[3-amino-6-(4-isopropylsulfonylphenyl)pyrazin-2-yl]-1,3,4-oxadiazol-2-amine]	≤ 10
Nc1ncc(-c2ccnc(N3CCNCC3)c2)nc1-c1nnc(-c2ccccc2)o1 [IA-271, 3-(5-phenyl-1,3,4-oxadiazol-2-yl)-5-(2-piperazin-1-yl-4-pyridyl)pyrazin-2-amine]	100 to 5000
CC(N)C(=O)Nc1nnc(-c2nc(-c3ccc(S(=O)(=O)C(C)C)cc3)cnc2N)o1 (stereo not drawn) [IA-272, 2-amino-N-[5-[3-amino-6-(4-isopropylsulfonylphenyl)pyrazin-2-yl]-1,3,4-oxadiazol-2-yl]propanamide]	100 to 5000
CC(C)S(=O)(=O)c1ccc(-c2cnc(N)c(-c3nnc(-c4ccc(C#N)cc4)o3)n2)cc1 [IA-273, 4-[5-[3-amino-6-(4-isopropylsulfonylphenyl)pyrazin-2-yl]-1,3,4-oxadiazol-2-yl]benzonitrile]	10 to 100
CC(O)c1cccc(-c2nnc(-c3nc(-c4ccc(C(=O)N(C)C)cc4)cnc3N)o2)c1 (stereo not drawn) [IA-275, 4-[5-amino-6-[5-[3-(1-hydroxyethyl)phenyl]-1,3,4-oxadiazol-2-yl]pyrazin-2-yl]-N,N-dimethyl-benzamide]	10 to 100
Cc1ccsc1-c1nnc(-c2nc(-c3ccc(S(=O)(=O)C(C)C)cc3)cnc2N)o1 [IA-276, 5-(4-isopropylsulfonylphenyl)-3-[5-(3-methyl-2-thienyl)-1,3,4-oxadiazol-2-yl]pyrazin-2-amine]	≤ 10
CC(=O)Nc1nnc(-c2nc(-c3ccc(C(=O)N(C)C)cc3)cnc2N)o1 [IA-278, 4-[6-(5-acetamido-1,3,4-oxadiazol-2-yl)-5-amino-pyrazin-2-yl]-N,N-dimethyl-benzamide]	100 to 5000
CN(C)CCCOc1ccc(-c2cnc(N)c(-c3nnc(-c4ccccc4)o3)n2)cn1 [IA-279, 5-[6-[3-(dimethylamino)propoxy]-3-pyridyl]-3-(5-phenyl-1,3,4-oxadiazol-2-yl)pyrazin-2-amine]	100 to 5000
CC(C)(C)S(=O)(=O)c1ccc(-c2cnc(N)c(-c3nnc(-c4ccccc4)o3)n2)cc1 [IA-280, 5-(4-tert-butylsulfonylphenyl)-3-(5-phenyl-1,3,4-oxadiazol-2-yl)pyrazin-2-amine]	≤ 10
CNCc1ccc(-c2nnc(-c3nc(-c4ccc(C(=O)N(C)C)cc4)cnc3N)o2)cc1 [IA-281, 4-[5-amino-6-[5-[4-(methylaminomethyl)phenyl]-1,3,4-oxadiazol-2-yl]pyrazin-2-yl]-N,N-dimethyl-benzamide]	≤ 10
CC(N)c1cccc(-c2nnc(-c3nc(-c4ccc(S(=O)(=O)C(C)C)cc4)cnc3N)o2)c1 (stereo not drawn) [IA-282, 3-[5-[3-(1-aminoethyl)phenyl]-1,3,4-oxadiazol-2-yl]-5-(4-isopropylsulfonylphenyl)pyrazin-2-amine]	≤ 10
Nc1ncc(-c2ccc(N3CCOCC3)nc2)nc1-c1nnc(-c2ccccc2)o1 [IA-283, 5-(6-morpholino-3-pyridyl)-3-(5-phenyl-1,3,4-oxadiazol-2-yl)pyrazin-2-amine]	10 to 100
CN(C)C(=O)c1ccc(-c2cnc(N)c(-c3nnc(-c4ccccc4OCCCO)o3)n2)cc1 [IA-284, 4-[5-amino-6-[5-[2-(3-hydroxypropoxy)phenyl]-1,3,4-oxadiazol-2-yl]pyrazin-2-yl]-N,N-dimethyl-benzamide]	≤ 10
CC(C)S(=O)(=O)c1ccc(-c2cnc(N)c(-c3nnc(-c4ccc(C5CNC5)cc4)o3)n2)cc1 [IA-285, 3-[5-[4-(azetidin-3-yl)phenyl]-1,3,4-oxadiazol-2-yl]-5-(4-isopropylsulfonylphenyl)pyrazin-2-amine]	≤ 10
CN(C)C(=O)c1ccc(-c2cnc(N)c(-c3nnc(-c4cccc([N+](=O)[O-])c4)o3)n2)cc1 [IA-286, 4-(5-amino-6-(5-(3-nitrophenyl)-1,3,4-oxadiazol-2-yl)pyrazin-2-yl)-N,N-dimethylbenzamide]	100 to 5000
CN(C)C(=O)c1ccc(-c2cnc(N)c(-c3nnc(NC(=O)c4ccccc4)o3)n2)cc1 [IA-287, 4-[5-amino-6-(5-benzamido-1,3,4-oxadiazol-2-yl)pyrazin-2-yl]-N,N-dimethyl-benzamide]	100 to 5000
CNCc1ccc(-c2nnc(-c3nc(-c4ccc(S(C)(=O)=O)cc4)cnc3N)o2)cc1 [IA-288, 3-[5-[4-(methylaminomethyl)phenyl]-1,3,4-oxadiazol-2-yl]-5-(4-methylsulfonylphenyl)pyrazin-2-amine]	≤ 10
